The results in this text go back to patent publication US20050154042A1, “N-alkyl pyrroles as HMG-CoA reductase inhibitors” (priority 2003, published 2005).

For orientation: melting point means the temperature of the solid-liquid transition.

In turn, `CC(N)=CC(=O)CNC(=O)c1c(-c2ccccc2)c(-c2ccc(F)cc2)c(CC[C@@H](O)C[C@@H](O)CC(=O)[O-])n1C(C)C.[Na+]` [Example 113, (3R,5R)-7-[5-(4-Amino-2-oxo-pent-3-enylcarbamoyl)-3-(4-fluoro-phenyl)-1-isopropyl-4-phenyl-1H-pyrrol-2-yl]-3,5-dihydroxy-heptanoic Acid, Sodium Salt] came in with a melting point of 189 to 193 °C. In the case of `CC(C)n1c(CC[C@@H](O)C[C@@H](O)CC(=O)[O-])c(-c2ccc(F)cc2)c(-c2ccccc2)c1C(=O)NCc1ccccc1.[Na+]` [Example 114, (3R,5R)-7-[5-Benzylcarbamoyl-3-(4-fluoro-phenyl)-1-isopropyl-4-phenyl-1H-pyrrol-2-yl]-3,5-dihydroxy-heptanoic Acid Sodium Salt], the melting point was 186 to 189 °C. Then `CC(C)n1c(CC[C@@H](O)C[C@@H](O)CC(=O)[O-])c(-c2ccc(F)cc2)c(-c2ccccc2)c1C(=O)N[C@@H](C)c1ccccc1.[Na+]` [Example 115, (3R,5R)-7-[3-(4-Fluoro-phenyl)-1-isopropyl-4-phenyl-5-((S)-1-phenyl-ethylcarbamoyl)-1H-pyrrol-2-yl]-3,5-dihydroxy-heptanoic Acid Sodium Salt], with 227 to 229 °C (dec.).

Turning to `COC(=O)c1ccc(NC(=O)c2c(-c3ccccc3)c(-c3ccc(F)cc3)c(CC[C@@H](O)C[C@@H](O)CC(=O)[O-])n2C(C)C)cc1.[Na+]` [Example 116, (3R,5R)-4-{[5-(6-Carboxy-3,5-dihydroxy-hexyl)-4-(4-fluoro-phenyl)-1-isopropyl-3-phenyl-1H-pyrrole-2-carbonyl]-amino}-benzoic Acid Methyl Ester Sodium Salt], the melting point was 188 to 191 °C (dec.). Then `COC(=O)c1ccc(NC(=O)c2c(-c3ccccc3)c(-c3ccc(F)cc3)c(CC[C@@H](O)C[C@@H](O)CC(=O)[O-])n2C(C)C)nc1.[Na+]` [Example 118, (3R,5R)-6-{[5-(6-Carboxy-3,5-dihydroxy-hexyl)-4-(4-fluoro-phenyl)-1-isopropyl-3-phenyl-1H-pyrrole-2-carbonyl]-amino}-nicotinic Acid Methyl Ester Sodium Salt], with 188 to 190 °C (dec.). Then `CC(C)n1c(CC[C@@H](O)C[C@@H](O)CC(=O)[O-])c(-c2ccc(F)cc2)c(-c2ccccc2)c1C(=O)Nc1ccccn1.[Na+]` [Example 119, (3R,5R)-7-[3-(4-Fluoro-phenyl)-1-isopropyl-4-phenyl-5-(pyridin-2-ylcarbamoyl)-1 H-pyrrol-2-yl]-3,5-dihydroxy-heptanoic Acid Sodium Salt], with 226 to 228 °C (dec.); and `CC(C)n1c(CC[C@@H](O)C[C@@H](O)CC(=O)[O-])c(-c2ccc(F)cc2)c(-c2ccc(F)cc2)c1C(=O)Nc1ccccn1.[Na+]` [Example 120, (3R,5R)-7-[3,4-Bis-(4-fluoro-phenyl)-1-isopropyl-5-(pyridin-2-ylcarbamoyl)-1H-pyrrol-2-yl]-3,5-dihydroxy-heptanoic Acid Sodium Salt], with 217 to 219 °C (dec.). Then `COC(=O)c1ccc(NC(=O)c2c(-c3ccc(F)cc3)c(-c3ccc(F)cc3)c(CC[C@@H](O)C[C@@H](O)CC(=O)[O-])n2C(C)C)nc1.[Na+]` [Example 121, (3R,5R)-6-{[5-(6-Carboxy-3,5-dihydroxy-hexyl)-3,4-bis-(4-fluoro-phenyl)-1-isopropyl-1H-pyrrole-2-carbonyl]-amino}-nicotinic Acid Methyl Ester Sodium Salt], with 178 to 181 °C (dec.); and `CC(C)n1c(CC[C@@H](O)C[C@@H](O)CC(=O)[O-])c(-c2ccc(F)cc2)c(-c2ccccc2)c1C(=O)N(c1ccccn1)c1ccccn1.[Na+]` [Example 123, (3R,5R)-7-[5-(Di-pyridin-2-yl-carbamoyl)-3-(4-fluoro-phenyl)-1-isopropyl-4-phenyl-1H-pyrrol-2-yl]-3,5-dihydroxy-heptanoic Acid Sodium Salt], with 223 to 225 °C (dec.); and `CC(C)n1c(CC[C@@H]2C[C@@H](O)CC(=O)O2)c(-c2ccc(F)cc2)c(-c2ccccc2)c1C(=O)Nc1ccc(C(=O)O)cn1` [Example 124, (2R,4R)-6-({4-(4-Fluoro-phenyl)-5-[2-(4-hydroxy-6-oxo-tetrahydro-pyran-2-yl)-ethyl]-1-isopropyl-3-phenyl-1H-pyrrole-2-carbonyl}-amino)-nicotinic Acid], with 172 to 174 °C (dec.).

The compound `CC(C)n1c(CC[C@@H](O)C[C@@H](O)CC(=O)[O-])c(-c2ccc(F)cc2)c(-c2ccccc2)c1C(=O)Nc1cccc(S(N)(=O)=O)c1.[Na+]` [Example 125, (3R,5R)-7-[3-(4-Fluoro-phenyl)-1-isopropyl-4-phenyl-5-(3-sulfamoyl-phenylcarbamoyl)-1H-pyrrol-2-yl]-3,5-dihydroxy-heptanoic Acid Sodium Salt] yielded a melting point of 227 to 229 °C. Then `CC(C)n1c(/C=C/[C@@H](O)C[C@@H](O)CC(=O)[O-])c(-c2ccc(F)cc2)c(-c2ccccc2)c1C(=O)Nc1cccc(S(N)(=O)=O)c1.[Na+]` [Example 126, (3R,5S)-7-[3-(4-Fluoro-phenyl)-1-isopropyl-4-phenyl-5-(3-sulfamoyl-phenylcarbamoyl)-1H-pyrrol-2-yl]-3,5-dihydroxy-hept-6-enoic Acid Sodium Salt], with 225 to 227 °C. The result for `CC(C)n1c(CC[C@@H](O)C[C@@H](O)CC(=O)[O-])c(-c2ccc(F)cc2)c(-c2ccc(F)cc2)c1C(=O)Nc1ccc(OCc2ccccc2)cc1.[Na+]` [Example 127] reads 215 to 217 °C; that for `CC(C)n1c(/C=C/[C@@H](O)C[C@@H](O)CC(=O)[O-])c(-c2ccc(F)cc2)c(-c2ccc(F)cc2)c1C(=O)Nc1ccccc1OCc1ccccc1.[Na+]` [Example 131, (3R,5S)-7-[5-(2-Benzyloxy-phenylcarbamoyl)-3,4-bis-(4-fluoro-phenyl)-1-isopropyl-1H-pyrrol-2-yl]-3,5-dihydroxy-hept-6-enoic Acid Sodium Salt], 228 to 229 °C; that for `CC(C)n1c(/C=C/[C@@H](O)C[C@@H](O)CC(=O)[O-])c(-c2ccc(F)cc2)c(-c2ccc(F)cc2)c1C(=O)Nc1cccc(OCc2ccccc2)c1.[Na+]` [Example 132, (3R,5 S)-7-[5-(3-Benzyloxy-phenylcarbamoyl)-3,4-bis-(4-fluoro-phenyl)-1-isopropyl-1H-pyrrol-2-yl]-3,5-dihydroxy-hept-6-enoic Acid Sodium Salt], 225 to 227 °C.

On to `CC(C)n1c(CC[C@@H](O)C[C@@H](O)CC(=O)[O-])c(-c2ccc(F)cc2)c(-c2ccc(F)cc2)c1C(=O)Nc1ccc(O)cc1.[Na+]` [Example 133, (3R,5R)-7-[3,4-Bis-(4-fluoro-phenyl)-5-(4-hydroxy-phenylcarbamoyl)-1-isopropyl-1H-pyrrol-2-yl]-3,5-dihydroxy-heptanoic Acid Sodium Salt], for which the melting point was 228 to 230 °C.

Consider `CC(C)n1c(CC[C@@H](O)C[C@@H](O)CC(=O)[O-])c(-c2ccc(F)cc2)c(-c2ccc(F)cc2)c1C(=O)Nc1ccccc1O.[Na+]` [Example 134, (3R,5R)-7-[3,4-Bis-(4-fluoro-phenyl)-5-(2-hydroxy-phenylcarbamoyl)-1-isopropyl-1H-pyrrol-2-yl]-3,5-dihydroxy-heptanoic Acid Sodium Salt], for which the melting point lay within 222 to 223 °C. Then `CC(C)n1c(CC[C@@H](O)C[C@@H](O)CC(=O)[O-])c(-c2ccc(F)cc2)c(-c2ccc(F)cc2)c1C(=O)Nc1cccc(O)c1.[Na+]` [Example 135, (3R,5R)-7-[3,4-Bis-(4-fluoro-phenyl)-5-(3-hydroxy-phenylcarbamoyl)-1-isopropyl-1H-pyrrol-2-yl]-3,5-dihydroxy-heptanoic Acid Sodium Salt], with 220 to 222 °C; and `COc1cccc(NC(=O)c2c(-c3ccc(F)cc3)c(-c3ccc(F)cc3)c(CC[C@@H](O)C[C@@H](O)CC(=O)[O-])n2C(C)C)c1.[Na+]` [Example 136, (3R,5R)-7-[3,4-Bis-(4-fluoro-phenyl)-1-isopropyl-5-(3-methoxy-phenylcarbamoyl)-1H-pyrrol-2-yl]-3,5-dihydroxy-heptanoic Acid Sodium Salt], with 215 to 217 °C. The result for `COc1cccc(NC(=O)c2c(-c3ccc(F)cc3)c(-c3ccc(F)cc3)c(/C=C/[C@@H](O)C[C@@H](O)CC(=O)[O-])n2C(C)C)c1.[Na+]` [Example 137, (3R,5 S)-7-[3,4-Bis-(4-fluoro-phenyl)-1-isopropyl-5-(3-methoxy-phenylcarbamoyl)-1H-pyrrol-2-yl]-3,5-dihydroxy-hept-6-enoic Acid Sodium Salt] reads 225 to 227 °C; that for `CC(C)n1c(CC[C@@H](O)C[C@@H](O)CC(=O)[O-])c(-c2ccc(F)cc2)c(-c2ccc(F)cc2)c1C(=O)Nc1cccc(Cl)c1.[Na+]` [Example 138, (3R,5R)-7-[5-(3-Chloro-phenylcarbamoyl)-3,4-bis-(4-fluoro-phenyl)-1-isopropyl-1H-pyrrol-2-yl]-3,5-dihydroxy-heptanoic Acid Sodium Salt], 191 to 194 °C. Then `CC(C)n1c(/C=C/[C@@H](O)C[C@@H](O)CC(=O)[O-])c(-c2ccc(F)cc2)c(-c2ccc(F)cc2)c1C(=O)Nc1cccc(Cl)c1.[Na+]` [Example 139, (3R,5S)-7-[5-(3-Chloro-phenylcarbamoyl)-3,4-bis-(4-fluoro-phenyl)-1-isopropyl-1H-pyrrol-2-yl]-3,5-dihydroxy-hept-6-enoic Acid Sodium Salt], with 229 to 230 °C; and `CCc1cccc(NC(=O)c2c(-c3ccc(F)cc3)c(-c3ccc(F)cc3)c(CC[C@@H](O)C[C@@H](O)CC(=O)[O-])n2C(C)C)c1.[Na+]` [Example 140, (3R,5R)-7-[5-(3-Ethyl-phenylcarbamoyl)-3,4-bis-(4-fluoro-phenyl)-1-isopropyl-1H-pyrrol-2-yl]-3,5-dihydroxy-heptanoic Acid Sodium Salt], with 175 to 177 °C; and `CCc1cccc(NC(=O)c2c(-c3ccc(F)cc3)c(-c3ccc(F)cc3)c(/C=C/[C@@H](O)C[C@@H](O)CC(=O)[O-])n2C(C)C)c1.[Na+]` [Example 141, (3R,5S)-7-[5-(3-Ethyl-phenylcarbamoyl)-3,4-bis-(4-fluoro-phenyl)-1-isopropyl-1H-pyrrol-2-yl]-3,5-dihydroxy-hept-6-enoic Acid Sodium Salt], with 229 to 230 °C.
